The values below come from patent US10577364B2, “Crystalline form of fused pyridine derivative's maleate and uses thereof” (priority 2015, dated 2020).

As a reminder, the AUC(0-inf) is the area under the concentration-time curve extrapolated to infinity. The low end stands for low exposure, the high end for high exposure. The term AUC(0-t) denotes exposure summed from dosing to a finite time, without extrapolation to infinity. Low readings indicate low exposure, high ones high exposure. For orientation: Cmax means the peak of the concentration-time curve. As a reminder, the Tmax is the time from dosing to the highest level. In general, half-life refers to how long it takes for the measured level to halve. High values mean slow loss, low ones fast loss. In general, kinetic solubility refers to solubility judged after dilution from a stock solution rather than from solid.

Data set [1] can be described thus: Pharmacokinetic study, oral administration to fasted SD rats. The settings on record: for AUC(0-inf) / AUC(0-t) / Cmax / Tmax / half-life: SD, rat, plasma, po, 50 mg/kg.
Source text: (§1) The Compound of Formula II and the Crystalline Form of Formula I were ground to fine particles. The material content (purity) was not less than 99.0%. Sodium carboxymethyl cellulose was medical supply graded.
(§2) Experimental animals: SD rats were divided to a Compound of Formula II group and a Crystalline Form of Formula I group, with both groups consisting of three males and three females.
(§3) Pharmaceutical preparation: each compound was formulated in 0.5% (w/v) aqueous sodium carboxymethyl cellulose and the final concentration of each compound was 10 mg/mL.
(§4) Administration and sample collection: each suspension was administered orally to fasted SD rats at a dose equivalent to 50 mg/kg the Compound of Formula II in a dose volume of 5 mL/kg. The blood samples were collected in EDTA-K pre anticoagulant tubes just before dosing (0 h) and at 0.5, 1, 1.5, 2, 4, 6, 8 and 24 hrs after dosing. The plasma from these samples was separated by centrifugation at 3000 rpm for 10 min at 4° C. The plasma samples were collected and stored at −80° C. until analysis.
(§5) Samples were analyzed by HPLC. Chemical ingredients were separated on a C18 DIKMA Platisil column (250×4.6 mm, 5 μm). An Isocratic mobile phase system consisting of acetonitrile-water (55:45) with 0.02 mol/L of sodium dihydrogen phosphate (adjusted pH to 6.0 by using sodium hydroxide solution) employed for sample analysis. The sample injection volume was 20 μL and the detection wavelength was 302 nm.
Data set [2] is described as follows: Kinetic solubility in H2O at RT. The settings on record: for pH / Form Change: H2O, RT; for Form Change: residual solids by XRPD.
Procedure: (§6) Kinetic solubility of the Crystalline Form of Formula I and N-(4-(2,3-dihydro-1H-pyrrolo[2,3-b]pyridin-4-yloxy)-3-fluorophenyl)-5-(4-fluorophenyl)-4-oxo-1,4-dihydropyridine-3-carboxamide (the Compound of Formula II) was studied in H2O at RT. After stirring approximate 4 mg solid in per 2 mL H2O at RT for a set amount of time, 0.6 mL suspension was centrifuged with the residual solids analyzed by XRPD and the concentrations in supernatants measured by high performance liquid chromatography (HPLC).
A short description of a further data set: physchem. The settings on record: water, thermodynamic from solid.
Data set [3] is described as follows: Long term stability storage, XRPD. In kind it is physicochemical. The settings on record: 25° C.±2° C./RH60%±10%, aluminum-plastic composite film bag, 0 m to 36 ms. On the procedure:
About 500 g of the Crystalline Form of Formula I was placed into a bag of aluminum-plastic composite film, and the bag was stored under conditions of 25° C.±2° C./RH60%±10% for 0 m, 3 ms, 6 ms, 9 ms, 12 ms, 18 ms, 24 ms, or 36 ms.

The nature of the next data set: in vivo. The settings on record: SD, rat, po, 50 mg/kg.
A short description of data set [4]: Thermodynamic stability, stress test storage, XRPD. The format is physicochemical. The settings on record: 40° C.±2° C./RH75%±5%, aluminum-plastic composite film bag, 0 m, 1 m, 2 ms, 3 ms, or 6 ms. On the procedure: About 500 g of the Crystalline Form of Formula I was placed into a bag of aluminum-plastic composite film, and the bag was stored under stress test conditions of 40° C.±2° C./RH75%±5% for 0 m, 1 m, 2 ms, 3 ms, or 6 ms.

The mark [5] stands for this setting: water, thermodynamic from solid.

Source text for in vivo: as §1, §2, §3, §4, §5
Procedure for physchem: as §6

For the compound `O=C(Nc1ccc(Oc2ccnc3c2CCN3)c(F)c1)c1c[nH]cc(-c2ccc(F)cc2)c1=O` [The Compound of Formula II, N-(4-(2,3-dihydro-1H-pyrrolo[2,3-b]pyridin-4-yloxy)-3-fluorophenyl)-5-(4-fluorophenyl)-4-oxo-1,4-dihydropyridine-3-carboxamide], in data set [1] (female), the AUC(0-inf) worked out at 18200 ± 4600 ng·h/mL, the AUC(0-t) came out at 9700 ± 6300 ng·h/mL, the Cmax amounted to 1900 ± 1100 ng/mL and the Tmax is 6 ± 2 h. In data set [1] (female), this compound showed a half-life of 4.7 ± 3.7 h. In data set [1] (male), the AUC(0-inf) is 17100 ± 7000 ng·h/mL, the AUC(0-t) worked out at 10100 ± 2900 ng·h/mL, the Cmax was 2200 ± 600 ng/mL and the Tmax worked out at 4.5 ± 2.6 h. The same compound showed a half-life in data set [1] (male) of 6.4 ± 2.6 h. For the same compound, in data set [2] (1 h), the pH is 7.2 and the “Form Change” value was “No”. In addition, in data set [2] (4 hrs), the pH is on record as 7.3 and the “Form Change” value is reported as “No”. In data set [2] (24 hrs), the pH worked out at 7.3 and the “Form Change” value is “No”. Moreover, in data set [2] (setting [5]), the solubility (kinetic) at 1 h was determined as 0.8 µg/mL, the solubility (kinetic) at 4 h was 1.1 µg/mL and the solubility (kinetic) at 24 h is 0.5 µg/mL.
Take `O=C(Nc1ccc(Oc2ccnc3c2CCN3)c(F)c1)c1c[nH]cc(-c2ccc(F)cc2)c1=O.O=C(O)/C=C\C(=O)O` [The Crystalline Form of Formula I, N-(4-(2,3-dihydro-1H-pyrrolo[2,3-b]pyridin-4-yloxy)-3-fluorophenyl)-5-(4-fluorophenyl)-4-oxo-1,4-dihydropyridine-3-carboxamide maleate]: in data set [1] (SD rats, oral, dose equivalent to 50 mg/kg the Compound of Formula II), the “Absorption compared with the Compound of Formula II” value is listed as “higher absorption than the Compound of Formula II”. In the data set “physchem”, this compound had a kinetic solubility at 1 h of 59 µg/mL, a solubility (kinetic) at 4 h of 47.8 µg/mL and a solubility (kinetic) at 24 h of 98.3 µg/mL. Besides, the “Crystalline Form determined by XRPD after storage (long term stability)” value in data set [3] was “purely the Crystalline Form of formula I”. Also, in the data set “in vivo” (female), the AUC(0-inf) amounted to 49300 ± 22200 ng·h/mL, the AUC(0-t) was 46400 ± 21600 ng·h/mL, the highest level (Cmax) was 7500 ± 700 ng/mL and the Tmax was 2 h. In addition, the half-life in the data set “in vivo” (female) is 3.7 ± 2.8 h. Also, in “in vivo” (male), the AUC(0-inf) came to 17000 ± 6100 ng·h/mL, the AUC(0-t) was found to be 15900 ± 5100 ng·h/mL, the concentration peaked (Cmax) at 3900 ± 700 ng/mL and the Tmax turned out to be 2.7 ± 1.2 h. In addition, the half-life in the data set “in vivo” (male) was 1.7 ± 0.9 h. Also, in data set [4], the “Crystalline Form determined by XRPD after storage (thermodynamic stability)” value was “purely the Crystalline Form of formula I”. Further, in data set [2] (1 h), the pH is 4.3 and the “Form Change” value was “No”. For the same compound, in data set [2] (4 hrs), the pH turned out to be 4.1 and the “Form Change” value is listed as “No”. In addition, in data set [2] (24 hrs), the pH was found to be 3.8 and the “Form Change” value is “No”.
